Data on one compound can be found in patent US20200171015A1, “METHODS OF TREATMENT FOR CYSTIC FIBROSIS” (Vertex Pharmaceuticals Incorporated, priority 2017, published 2020).

Marks after values point to notes of the source that are not given here.

The nature of data set [1]: Preclinical reproductive toxicology studies. As to conditions: in vivo.
Data set [2] in a line: Example 4: randomized, double-blind, placebo-controlled single- and multiple-dose escalation study, safety and tolerability. To be noted: healthy volunteers. The format is in vivo, human. From the text: A randomized, double-blind, placebo-controlled, single- and multiple-dose, dose-escalation study was conduced in healthy volunteer subjects. Subjects were randomized to receive Compound I or placebo (Part A and Part B), and triple combination of Compound I, Compound II, and Compound III, or triple placebo (Part C).

For the next data set, the system named is CFTR. As to conditions: disclosed in PCT Publication No. WO 2016/057572; cited from earlier work.
Data set [3] is described as follows: Previous studies of Compound I, safety and tolerability. The class given is in vivo, human.
In data set [4] the test system is people with CF who have one F508del mutation and one minimal function mutation (F/MF). Put plainly: Phase 2 study Part 1: efficacy (ppFEV1, sweat chloride, CFQ-R). As to conditions: Part 1 F/MF. The format is in vivo, human. As for the experimental part:
(§1) The safety of Compound I in triple combination with Compounds II and III is evaluated in CF subjects in a 2-part, randomized, double-blind, placebo- and Compound II/III-controlled, parallel-group, multicenter study. Parts 1 and 2 include a Screening Period, a 2-week Treatment Period, and a Safety Follow-up Visit. Part 2 also includes a 4-week Run-in Period before the Treatment Period and a 2-week Washout Period after the Treatment Period.
In Part 1, three dose levels of Compound I (100, 200, and 300 mg q12h) in triple combination with Compound II (100 mg qd) and Compound III (150 mg q12h) is evaluated in subjects with the F508del/MF genotype.
Part 1 has three cohorts (Cohorts IA, IB, and IC). In Cohort 1A, the triple combination of Compound I at 100 mg q12h, Compound II at 100 mg qd, and Compound III at 150 mg q12h is evaluated in subjects with the F508del/MF genotype. In Cohort IB, the triple combination of Compound I at 200 mg q12h, Compound II at 100 mg qd, and Compound III at 150 mg q12h is evaluated in subjects with the F508del/MF genotype. In Cohort IC, the triple combination of Compound I at 300 mg q12h, Compound II at 100 mg qd, and Compound III at 150 mg q12h is evaluated in subjects with the F508del/MF genotype. Triple placebo is the comparator for all three cohorts
(§2) Primary endpoints for the study include: safety and tolerability assessments based on adverse events (AEs), clinical laboratory values, standard 12-lead electrocardiograms (ECGs), vital signs, and pulse oximetry. Secondary endpoints include: absolute change in sweat chloride concentrations from baseline at Day 15; absolute change in percent predicted forced expiratory volume in 1 second (ppFEV1) from baseline at Day 15; relative change in ppFEV1 from baseline at Day 15; absolute change in Cystic Fibrosis Questionnaire-Revised (CFQ-R) respiratory domain score from baseline at Day 15; and PK parameters of Compound I, Compound II, Compound III, and metabolites of Compounds II and III.
(§3) In this Phase 2 randomized, double-blind study, Compound I (100 mg, 200 mg and 300 mg q12h) in combination with Compound II (100 mg qd) and Compound III (150 mg q12h) in people with CF ages 18 and older who have one F508del mutation and one minimal function mutation and in people who have two copies of the F508del mutation was studied. Primary endpoints as described above in Example 6 were for safety and tolerability. Secondary endpoints included absolute change in ppFEV1 and change in sweat chloride.
In Part 1 of the study, the triple combination was evaluated for two weeks in 34 patients ages 18 and older who had one F508de/mutation and one minimal function mutation (8 in combined placebo, 6 in Compound I 100 mg, 10 in Compound 1 200 mg, and 10 in Compound 1 300 mg). A summary of the within-group ppFEV (primary endpoint) and sweat chloride data (secondary endpoint) through Day 15 is provided below.

The subject of data set [5] is people with CF who have two copies of the F508del mutation (F/F). Kind of data set: Phase 2 study Part 2: efficacy (ppFEV1, sweat chloride). The format is in vivo, human. To be noted: Part 2 F/F. As for the experimental part: as §1
In Part 2, two dose levels of Compound I (200 and 300 mg q12h) in triple combination with Compound II (100 mg qd) and Compound III (150 mg q12h) is evaluated in subjects with the F508del/F508del genotype.
Part 2 has two cohorts (Cohorts 2A and 2B). In Cohort 2A, the triple combination of Compound I at 200 mg q12h, Compound II at 100 mg qd, and Compound III at 150 mg q12h is evaluated in subjects with the F508del/F508del genotype. In Cohort 2B, the triple combination of Compound I at 300 mg q12h, Compound II at 100 mg qd, and Compound III at 150 mg q12h is evaluated in subjects with the F508del/F508del genotype. The combination of placebo, Compound II, and Compound III is the comparator for both cohorts.
as §2, §3
In Part 2 of the study, the triple combination was evaluated for two weeks in 14 patients ages 18 and older who had two copies of the F508del mutation, who were already receiving the combination of Compound II and Compound III (4 weeks, 4 in placebo and 10 in Compound I 200 mg). A summary of the within-group lung function (ppFEV) (primary endpoint) and sweat chloride data (secondary endpoint) for the triple combination treatment period, from baseline (end of the 4-week Compound II/Compound III run-in period), through Day 15 is provided below.
A summary of the within-group lung function (ppFEV) (primary endpoint) and sweat chloride data (secondary endpoint) from patients in Part 2 of the study who received the triple combination including 300 mg of Compound I for 4 weeks is provided below.

The mark [6] stands for this setting: Compound I 100 mg in triple combination with Compound II and Compound III, n 6.
Where [7] appears, read: Compound I 200 mg in triple combination with Compound II and Compound III, n 10.
[8] abbreviates: Compound I 300 mg in triple combination with Compound II and Compound III, n 21.

Consider `CC(C)COc1cc(F)cc(-c2ccc(C(=O)NS(=O)(=O)c3cccc(N)n3)c(N3C[C@@H](C)CC3(C)C)n2)c1` [Compound I, N-[(6-amino-2-pyridyl)sulfonyl]-6-(3-fluoro-5-isobutoxy-phenyl)-2-[(4S)-2,2,4-trimethylpyrrolidin-1-yl]pyridine-3-carboxamide], for which the “Findings in preclinical reproductive toxicology studies” value in data set [1] is “no adverse findings of note”. Further, in data set [2] (all parts of the study), the “Deaths, serious or severe adverse events” value is given as “no deaths or serious or severe adverse events”. In addition, the “Severity of adverse events” value in data set [2] (all parts of the study) was “mild or moderate”. Further, the Dose-limiting adverse events entry in data set [2] (multiple doses of 800 mg q12h) is “Dose-limiting adverse events were observed”. In addition, the Tolerability result is recorded as “well tolerated” in data set [2] (multiple doses up to 400 mg q12h for 14 days); “well tolerated” in data set [2] (single doses from 50 mg up to 2000 mg); “well tolerated” in data set [2] (up to 300 mg q12h in triple combination with Compound II (100 mg qd) and Compound III (150 mg q12h) for 13 days). The “EC30 as CFTR modulator” value in the data set with CFTR was below 3 µM. Also, the Safety and tolerability entry in data set [3] (multiple doses up to 300 mg q12h in combination with Compound II (100 mg qd) and Compound III (150 mg q12h), after 14 days of dosing) was “generally safe and tolerated”; in data set [3] (single doses up to 2000 mg and multiple doses up to 400 mg q12h) it was “generally safe and well tolerated”. Also, the Hemolysis entry in data set [3] (subjects with glucose-6-phosphate dehydrogenase (G6PD) deficiency) is “treatment-emergent hemolysis in a subject who was found to have glucose-6-phosphate dehydrogenase (G6PD) deficiency”. Besides, the “Sweat Chloride, Abs. Change from Baseline, Day 15 Results” value is reported as −19.5 in data set [4] (setting [6]); −13.6^a in data set [4] (Compound I 200 mg in triple combination with Compound II and Compound III, n 10, missing data from 2 subjects); −27.5 in data set [4] (Compound I 300 mg in triple combination with Compound II and Compound III, n 10); −21.3 in data set [5] (setting [7]); −23.9 in data set [5] (setting [8]). Moreover, the “ppFEV1, Abs. Change from Baseline, Day 15 Results” value in data set [4] (setting [6]) is 5.7; in data set [4] (setting [7]), 9.7; in data set [4] (Compound I 300 mg in triple combination with Compound II and Compound III, n 10, missing data from 2 subjects), 8.0^a; in data set [5] (setting [7]), 7.3; in data set [5] (setting [8]) it was 5.1. In data set [5] (setting [8]), the “Sweat Chloride, Abs. Change from Baseline, Day 29 Results” value was −22.3. For the same compound, in data set [5] (setting [8]), the “ppFEV1, Abs. Change from Baseline, Day 29 Results” value amounted to 6.5.
